Like-named read-outs stand apart in the source and are kept apart here.
Experiments:
[1] = format: in vivo, human; details: for PCI-45227 mean AUClast / PCI-45227 mean Cmax / PCI-45227 tmax, median (range): fasted; for concentration at 2 h: rifampin plasma concentration, Study 2, day 11, 2 h after drug intake, rifampin 600 mg q.d.
[2] = standard breakfast with GFJ; ref de Vries et al. [2015]; cited from earlier work
[3] = not given; remark: listed apart in the source
[4] = tested on: Bruton’s tyrosine kinase (BTK); details: reversible binding; ref Parmar et al. [2014]; cited from earlier work
[5] = Study 1, ibrutinib 120 mg alone, fasted
[6] = Study 2, ibrutinib 560 mg + rifampin 600 mg
[7] = Study 2, ibrutinib 560 mg alone
[8] = Study 1, ibrutinib 40 mg + ketoconazole 400 mg, fasted
[9] = Study 1, ibrutinib + ketoconazole vs ibrutinib alone

**Q.** With `C=CC(=O)N1CCC[C@@H](n2nc(-c3ccc(Oc4ccccc4)cc3)c3c(N)ncnc32)C1` [Ibrutinib, reference compound] as the compound, how does the AUC(0-inf) ([1]; human, plasma, oral, 560 mg) read?
**A.** 300 ng·h/mL

**Q.** And the “absolute oral bioavailability (F)” value [2]?
**A.** 15.9%

**Q.** What about the “mean DN_AUClast of ibrutinib” value (Study 1, ibrutinib 120 mg alone, day 1, fasted) of the same compound?
**A.** 71.4 ng·h/mL

**Q.** What about the “mean DN_Cmax of ibrutinib” value (Study 1, ibrutinib 120 mg alone, day 1, fasted, healthy men) of the same compound?
**A.** 11.8 ng/mL

**Q.** What about the AUClast geometric mean [5] of the same compound?
**A.** 61 ng·h/mL

**Q.** And the AUC (human, in vivo, 120 mg)?
**A.** 56 ng·h/mL

**Q.** What about the AUC(0-inf) (human, in vivo, 120 mg) of the same compound?
**A.** 71 ng·h/mL

**Q.** What about the “AUCs of ibrutinib following i.v. administration with and without GFJ” value ([3]; Study 3, nonfasted, i.v. dose of 100 μg 13C6 PCI-32765) of the same compound?
**A.** the same

**Q.** And the AUC ([3]; human, in vivo, 560 mg)?
**A.** 529 ng·h/mL

**Q.** And the AUC(0-inf) ([3]; human, in vivo, 560 mg)?
**A.** 643 ng·h/mL

**Q.** With `CC(=O)N1CCN(c2ccc(OCC3COC(Cn4ccnc4)(c4ccc(Cl)cc4Cl)O3)cc2)CC1` (stereo not drawn) [ketoconazole, reference compound] as the compound, how does the “ketoconazole plasma concentration, two participants with very low concentrations” value (Study 1, day 7, individual values) read?
**A.** 231 ng/mL

**Q.** For `Nc1ncnc2c1c(-c1ccc(Oc3ccccc3)cc1)nn2[C@@H]1CCCN(C(=O)C(O)CO)C1` (stereo partly drawn) [PCI-45227], which “PCI-45227 mean AUClast” value [1, 6] is on record?
**A.** 374 ng·h/mL

**Q.** And the “PCI-45227 mean Cmax” value [1, 6]?
**A.** 49.9 ng/mL

**Q.** And the “PCI-45227 tmax, median (range)” value [1, 6]?
**A.** 3.00 h

**Q.** And the “PCI-45227 mean AUClast” value [1, 7]?
**A.** 946 ng·h/mL

**Q.** And the “PCI-45227 mean Cmax” value [1, 7]?
**A.** 70.0 ng/mL

**Q.** What about the “PCI-45227 tmax, median (range)” value [1, 7] of the same compound?
**A.** 2.02 h

**Q.** What about the “metabolite to parent ratio for Cmax” value ([1]; Study 2, ibrutinib + rifampin) of the same compound?
**A.** 20.80

**Q.** What about the “metabolite to parent ratio for Cmax” value ([1]; Study 2, ibrutinib alone) of the same compound?
**A.** 2.09

**Q.** And the “inhibitory activity toward BTK relative to ibrutinib” value [4]?
**A.** approximately 15 times lower

**Q.** And the “PCI-45227 t1/2, mean (SD)” value [8]?
**A.** 18.00 h

**Q.** And the “PCI-45227 tmax, median (range)” value [8]?
**A.** 4.00 h

**Q.** What about the “PCI-45227 DN_AUClast” value [5] of the same compound?
**A.** 304 ng·h/mL

**Q.** And the “PCI-45227 DN_Cmax” value [5]?
**A.** 29.1 ng/mL

**Q.** And the “PCI-45227 t1/2, mean (SD)” value [5]?
**A.** 11.41 h

**Q.** And the “PCI-45227 tmax, median (range)” value [5]?
**A.** 2.00 h

**Q.** What about the “mean metabolite to parent ratio for Cmax” value (Study 1, ibrutinib + ketoconazole) of the same compound?
**A.** 0.05

**Q.** And the “decrease of PCI-45227 DN_AUClast with ketoconazole” value [9]?
**A.** 1.2 times lower

**Q.** And the “decrease of PCI-45227 DN_Cmax with ketoconazole” value [9]?
**A.** 2.6 times lower

**Q.** What about the “mean metabolite to parent ratio for Cmax” value (Study 1, ibrutinib alone) of the same compound?
**A.** 2.64

**Q.** And the “effect of GFJ on tmax of PCI-45227” value ([3]; Study 3)?
**A.** no effect

**Q.** And the “dose-normalized PCI-45227 concentrations and AUCs with or without GFJ” value ([3]; Study 3, oral ibrutinib)?
**A.** comparable

**Q.** What about the Cmax metabolite-to-parent ratio ([3]; Study 3, with GFJ) of the same compound?
**A.** 0.32

**Q.** And the Cmax metabolite-to-parent ratio ([3]; Study 3, without GFJ)?
**A.** 1.03

**Q.** Which concentration at 2 h ([1]; human, plasma, oral, mean ± SD) does the source give for `CO[C@H]1/C=C/O[C@@]2(C)Oc3c(C)c(O)c4c(O)c(c(/C=N/N5CCN(C)CC5)c(O)c4c3C2=O)NC(=O)/C(C)=C\C=C\[C@H](C)[C@H](O)[C@@H](C)[C@@H](O)[C@@H](C)[C@H](OC(C)=O)[C@@H]1C` [rifampin, reference compound] here?
**A.** 9250 ± 4960 ng/mL

**Q.** And the concentration at 2 h ([1]; human, plasma, oral, range)?
**A.** 289 to 18400 ng/mL
